ChEMBL document CHEMBL3638030, “IC50 data for the L-type calcium channel extracted from a set of literature articles”

Tests used:
[1] = target: T1, Voltage-dependent L-type calcium channel subunit alpha-1C (Rattus norvegicus, UniProt P22002); test: Inhibition of Cav1.2 calcium current measured using whole cell patch clamp in rat Artery myocytes; assay type: functional, cell-based, Tail; parameters: ca sol conc 5 mM, temp 20-22 C
[2] = target: T1, Voltage-dependent L-type calcium channel subunit alpha-1C; test: (§1) Inhibition of Cav1.2 calcium current measured using whole cell patch clamp in rat myocyte; assay type: functional, Heart, Cardiac Muscle Cell; parameters: ca sol conc 1.8 mM, temp 20-25 C
[3] = target: T2, Voltage-dependent L-type calcium channel subunit alpha-1C (Mus musculus, UniProt Q01815); test: (§2) Inhibition of Cav1.2 calcium current measured using whole cell patch clamp in mouse ventricular myocytes; assay type: functional, cell-based, Heart, Ventricular myocyte; parameters: ca sol conc 1.8 mM, temp room
[4] = target: T1, Voltage-dependent L-type calcium channel subunit alpha-1C; test: as §1; assay type: functional, Heart, Cardiac Muscle Cell; parameters: ca sol conc 1.2 mM, temp 22 C
[5] = target: T1, Voltage-dependent L-type calcium channel subunit alpha-1C; test: Inhibition of Cav1.2 calcium current measured using whole cell patch clamp in rat Vascular smooth muscle cells; assay type: functional, cell-based; parameters: ca sol conc 0 (Barium used instead) mM, temp 22 C
[6] = target: T3, Voltage-dependent L-type calcium channel subunit alpha-1C (Cavia porcellus, UniProt O35505); test: (§3) Inhibition of Cav1.2 calcium current measured using whole cell patch clamp in guinea pig ventricular myocytes; assay type: functional, cell-based, Heart, Ventricular myocyte; parameters: ca sol conc 1.8 mM, temp room
T3 sequence (O35505 whole entry): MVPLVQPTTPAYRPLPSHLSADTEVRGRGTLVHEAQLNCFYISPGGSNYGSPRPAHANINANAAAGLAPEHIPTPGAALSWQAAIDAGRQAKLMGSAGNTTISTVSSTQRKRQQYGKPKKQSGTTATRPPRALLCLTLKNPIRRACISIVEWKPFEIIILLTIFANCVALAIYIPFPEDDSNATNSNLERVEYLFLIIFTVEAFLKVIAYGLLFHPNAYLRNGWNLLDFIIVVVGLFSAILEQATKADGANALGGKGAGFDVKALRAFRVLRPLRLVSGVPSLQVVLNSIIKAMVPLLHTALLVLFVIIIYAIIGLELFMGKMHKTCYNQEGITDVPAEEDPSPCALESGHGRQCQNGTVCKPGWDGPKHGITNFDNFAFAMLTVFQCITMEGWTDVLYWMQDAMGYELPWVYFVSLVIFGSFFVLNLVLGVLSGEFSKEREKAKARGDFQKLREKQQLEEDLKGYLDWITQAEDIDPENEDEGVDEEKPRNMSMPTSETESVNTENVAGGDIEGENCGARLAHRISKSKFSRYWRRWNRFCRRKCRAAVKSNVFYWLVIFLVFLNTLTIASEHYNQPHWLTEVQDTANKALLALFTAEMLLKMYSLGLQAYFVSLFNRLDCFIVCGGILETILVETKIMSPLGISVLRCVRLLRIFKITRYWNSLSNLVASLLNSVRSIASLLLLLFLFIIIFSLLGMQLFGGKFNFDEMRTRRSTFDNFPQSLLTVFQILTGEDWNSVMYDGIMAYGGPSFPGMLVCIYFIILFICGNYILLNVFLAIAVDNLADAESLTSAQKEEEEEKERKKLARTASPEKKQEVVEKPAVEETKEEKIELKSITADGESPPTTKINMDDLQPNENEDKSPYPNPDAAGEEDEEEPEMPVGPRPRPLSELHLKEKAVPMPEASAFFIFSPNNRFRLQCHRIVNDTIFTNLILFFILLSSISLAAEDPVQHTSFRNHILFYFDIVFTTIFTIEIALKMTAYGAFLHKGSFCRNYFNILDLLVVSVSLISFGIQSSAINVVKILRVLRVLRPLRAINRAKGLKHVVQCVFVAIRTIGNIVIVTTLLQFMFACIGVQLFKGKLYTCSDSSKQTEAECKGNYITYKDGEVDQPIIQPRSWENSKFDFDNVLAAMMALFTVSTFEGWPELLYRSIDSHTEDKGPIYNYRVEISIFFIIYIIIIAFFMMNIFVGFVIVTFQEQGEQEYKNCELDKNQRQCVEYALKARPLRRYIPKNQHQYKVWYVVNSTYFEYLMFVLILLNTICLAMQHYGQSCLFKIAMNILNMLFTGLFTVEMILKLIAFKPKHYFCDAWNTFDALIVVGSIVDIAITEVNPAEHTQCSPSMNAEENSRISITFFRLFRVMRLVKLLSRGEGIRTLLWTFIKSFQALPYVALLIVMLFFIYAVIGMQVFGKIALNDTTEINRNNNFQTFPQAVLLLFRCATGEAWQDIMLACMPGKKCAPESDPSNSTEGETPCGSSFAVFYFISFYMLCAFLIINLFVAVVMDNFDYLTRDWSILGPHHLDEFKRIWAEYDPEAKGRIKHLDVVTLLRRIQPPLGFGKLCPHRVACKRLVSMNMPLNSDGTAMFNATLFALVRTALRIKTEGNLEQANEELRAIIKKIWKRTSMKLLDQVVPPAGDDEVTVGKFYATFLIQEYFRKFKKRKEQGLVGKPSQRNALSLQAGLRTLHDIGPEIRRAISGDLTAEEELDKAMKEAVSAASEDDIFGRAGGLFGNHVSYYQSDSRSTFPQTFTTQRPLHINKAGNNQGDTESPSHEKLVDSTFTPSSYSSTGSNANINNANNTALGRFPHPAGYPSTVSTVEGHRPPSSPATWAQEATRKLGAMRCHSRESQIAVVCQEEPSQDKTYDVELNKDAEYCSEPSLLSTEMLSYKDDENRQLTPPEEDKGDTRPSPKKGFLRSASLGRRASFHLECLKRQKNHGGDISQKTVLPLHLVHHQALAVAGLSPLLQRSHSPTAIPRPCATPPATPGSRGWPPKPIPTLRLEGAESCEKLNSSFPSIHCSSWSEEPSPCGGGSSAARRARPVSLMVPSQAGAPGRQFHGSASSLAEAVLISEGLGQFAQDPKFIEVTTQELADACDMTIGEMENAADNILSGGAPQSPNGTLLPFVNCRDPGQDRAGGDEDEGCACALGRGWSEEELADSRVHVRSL

[7] = target: T3, Voltage-dependent L-type calcium channel subunit alpha-1C; test: as §3; assay type: functional, cell-based, Heart, Ventricular myocyte; parameters: ca sol conc 1.8 mM
[8] = target: T3, Voltage-dependent L-type calcium channel subunit alpha-1C; test: as §3; assay type: functional, cell-based, Heart, Ventricular myocyte; parameters: ca sol conc 1.8 mM; remark: listed apart in the source
[9] = target: T1, Voltage-dependent L-type calcium channel subunit alpha-1C; test: (§4) Inhibition of Cav1.2 calcium current measured using whole cell patch clamp in rat ventricular myocytes; assay type: functional, cell-based, Heart, Ventricular myocyte; parameters: ca sol conc 1.8 mM, temp 25-27 C
[10] = target: T1, Voltage-dependent L-type calcium channel subunit alpha-1C; test: as §1; assay type: functional, Heart; parameters: ca sol conc 1.8 mM, temp 20-25 C; conditions: cardiac muscle cell
[11] = target: T3, Voltage-dependent L-type calcium channel subunit alpha-1C; test: as §3; assay type: functional, cell-based, Heart, Ventricular myocyte; parameters: ca sol conc 1 mM, temp 35 C
[12] = target: T3, Voltage-dependent L-type calcium channel subunit alpha-1C; test: as §3; assay type: functional, cell-based, Heart, Ventricular myocyte; parameters: ca sol conc 1.8 mM, temp 20-24 C
[13] = target: T1, Voltage-dependent L-type calcium channel subunit alpha-1C; test: as §4; assay type: functional, cell-based, Heart, Ventricular myocyte; parameters: ca sol conc 2 mM, temp room
[14] = target: T1, Voltage-dependent L-type calcium channel subunit alpha-1C; test: (§5) Inhibition of Cav1.2 calcium current measured using FLIPR in rat aortic A7r5 cells; assay type: functional, cell-based
[15] = target: T1, Voltage-dependent L-type calcium channel subunit alpha-1C; test: as §5; assay type: functional, cell-based; remark: listed apart in the source
[16] = target: T1, Voltage-dependent L-type calcium channel subunit alpha-1C; test: as §4; assay type: functional, cell-based, Heart, Ventricular myocyte; parameters: ca sol conc 1 mM, temp 22-25 C
[17] = target: T3, Voltage-dependent L-type calcium channel subunit alpha-1C; test: (§6) Inhibition of Cav1.2 calcium current measured using whole cell patch clamp in guinea pig atrial myocytes; assay type: functional, cell-based, Heart, Cardiac Muscle Cell; parameters: ca sol conc 1.8 mM, temp 36 pm 1 C
[18] = target: T3, Voltage-dependent L-type calcium channel subunit alpha-1C; test: Inhibition of Cav1.2 calcium current measured using whole Cell patch clamp in guinea pig ventricular myocytes; assay type: functional, cell-based, Heart, Ventricular myocyte; parameters: ca sol conc 1.8 mM
[19] = target: T3, Voltage-dependent L-type calcium channel subunit alpha-1C; test: as §3; assay type: functional, cell-based, Heart, Ventricular myocyte; parameters: ca sol conc 1.8 mM, temp 19 C
[20] = target: T3, Voltage-dependent L-type calcium channel subunit alpha-1C; test: as §3; assay type: functional, cell-based, Heart, Ventricular myocyte; parameters: ca sol conc 1.8 mM, temp 35-36 C
[21] = target: T3, Voltage-dependent L-type calcium channel subunit alpha-1C; test: as §3; assay type: functional, cell-based, Heart, Ventricular myocyte; parameters: ca sol conc 5 mM, temp 20-22 C
[22] = target: T3, Voltage-dependent L-type calcium channel subunit alpha-1C; test: as §3; assay type: functional, cell-based, Heart, Ventricular myocyte; parameters: ca sol conc 5 mM, temp 20-22 C; remark: listed apart in the source
[23] = target: T1, Voltage-dependent L-type calcium channel subunit alpha-1C; test: as §4; assay type: functional, cell-based, Heart, Ventricular myocyte; parameters: ca sol conc 1.8 mM, temp 25 C
[24] = target: T3, Voltage-dependent L-type calcium channel subunit alpha-1C; test: as §3; assay type: functional, cell-based, Heart, Ventricular myocyte; parameters: ca sol conc 1.8 mM; remark: listed apart in the source
[25] = target: L-type calcium channel alpha 1C/beta 2A (Oryctolagus cuniculus, UniProt P15381+P54288); test: Inhibition of Cav1.2 calcium current measured using whole cell patch clamp in human HEK293 cells transfected with rabbit L-type calcium channel subunits; assay type: functional, cell-based; parameters: ca sol conc 5 mM, temp room
[26] = target: T3, Voltage-dependent L-type calcium channel subunit alpha-1C; test: as §6; assay type: functional, cell-based, Heart, Cardiac Muscle Cell; parameters: ca sol conc 2 mM, temp 22 pm 1 C
[27] = target: T3, Voltage-dependent L-type calcium channel subunit alpha-1C; test: Inhibition of Cav1.2 calcium current measured using whole cell patch clamp in guinea pig tracheal smooth muscle cells; assay type: functional, tissue-based, Trachea; parameters: ca sol conc 5 - Barium mM, temp 35 C
[28] = target: Voltage-dependent L-type calcium channel subunit alpha-1C (Homo sapiens, UniProt Q13936); test: Inhibition of Cav1.2 calcium current measured using Voltage-clamp 2-electrode in Xenopous Oocyte transfected with human L-type calcium channel; assay type: functional, cell-based, Xenopus; parameters: ca sol conc 4 - Ba(OH)2 mM, temp 20-22 C
[29] = target: T3, Voltage-dependent L-type calcium channel subunit alpha-1C; test: as §3; assay type: functional, cell-based, Heart, Ventricular myocyte; parameters: ca sol conc 1.8 mM, temp 36 C
[30] = target: T1, Voltage-dependent L-type calcium channel subunit alpha-1C; test: (§7) Inhibition of Cav1.2 calcium current measured using whole cell patch clamp in rat ventricular myocytess; assay type: functional, cell-based, Heart, Ventricular myocyte; parameters: ca sol conc 2 mM, temp 22-24 C
[31] = target: T4, Voltage-dependent L-type calcium channel subunit alpha-1C (Oryctolagus cuniculus, UniProt P15381); test: (§8) Inhibition of Cav1.2 calcium current measured using whole cell patch clamp in rabbit ventricular myocytes; assay type: functional, cell-based, Heart, Ventricular myocyte; parameters: ca sol conc 1.8 mM, temp 23 C
[32] = target: T4, Voltage-dependent L-type calcium channel subunit alpha-1C; test: as §8; assay type: functional, cell-based, Heart, Ventricular myocyte; parameters: ca sol conc 1.8 mM, temp 23 C; remark: listed apart in the source
[33] = target: T2, Voltage-dependent L-type calcium channel subunit alpha-1C; test: as §2; assay type: functional, cell-based, Heart; parameters: ca sol conc 2.5 mM, temp 22-24 C; conditions: ventricular myocyte
[34] = target: T1, Voltage-dependent L-type calcium channel subunit alpha-1C; test: as §4; assay type: functional, cell-based, Heart, Ventricular myocyte; parameters: ca sol conc 1.8 mM, temp 22-26 C
[35] = target: T1, Voltage-dependent L-type calcium channel subunit alpha-1C; test: as §7; assay type: functional, cell-based, Heart, Ventricular myocyte; parameters: ca sol conc 1.8 mM, temp 20-22 C

T1 sequence (P22002 whole entry): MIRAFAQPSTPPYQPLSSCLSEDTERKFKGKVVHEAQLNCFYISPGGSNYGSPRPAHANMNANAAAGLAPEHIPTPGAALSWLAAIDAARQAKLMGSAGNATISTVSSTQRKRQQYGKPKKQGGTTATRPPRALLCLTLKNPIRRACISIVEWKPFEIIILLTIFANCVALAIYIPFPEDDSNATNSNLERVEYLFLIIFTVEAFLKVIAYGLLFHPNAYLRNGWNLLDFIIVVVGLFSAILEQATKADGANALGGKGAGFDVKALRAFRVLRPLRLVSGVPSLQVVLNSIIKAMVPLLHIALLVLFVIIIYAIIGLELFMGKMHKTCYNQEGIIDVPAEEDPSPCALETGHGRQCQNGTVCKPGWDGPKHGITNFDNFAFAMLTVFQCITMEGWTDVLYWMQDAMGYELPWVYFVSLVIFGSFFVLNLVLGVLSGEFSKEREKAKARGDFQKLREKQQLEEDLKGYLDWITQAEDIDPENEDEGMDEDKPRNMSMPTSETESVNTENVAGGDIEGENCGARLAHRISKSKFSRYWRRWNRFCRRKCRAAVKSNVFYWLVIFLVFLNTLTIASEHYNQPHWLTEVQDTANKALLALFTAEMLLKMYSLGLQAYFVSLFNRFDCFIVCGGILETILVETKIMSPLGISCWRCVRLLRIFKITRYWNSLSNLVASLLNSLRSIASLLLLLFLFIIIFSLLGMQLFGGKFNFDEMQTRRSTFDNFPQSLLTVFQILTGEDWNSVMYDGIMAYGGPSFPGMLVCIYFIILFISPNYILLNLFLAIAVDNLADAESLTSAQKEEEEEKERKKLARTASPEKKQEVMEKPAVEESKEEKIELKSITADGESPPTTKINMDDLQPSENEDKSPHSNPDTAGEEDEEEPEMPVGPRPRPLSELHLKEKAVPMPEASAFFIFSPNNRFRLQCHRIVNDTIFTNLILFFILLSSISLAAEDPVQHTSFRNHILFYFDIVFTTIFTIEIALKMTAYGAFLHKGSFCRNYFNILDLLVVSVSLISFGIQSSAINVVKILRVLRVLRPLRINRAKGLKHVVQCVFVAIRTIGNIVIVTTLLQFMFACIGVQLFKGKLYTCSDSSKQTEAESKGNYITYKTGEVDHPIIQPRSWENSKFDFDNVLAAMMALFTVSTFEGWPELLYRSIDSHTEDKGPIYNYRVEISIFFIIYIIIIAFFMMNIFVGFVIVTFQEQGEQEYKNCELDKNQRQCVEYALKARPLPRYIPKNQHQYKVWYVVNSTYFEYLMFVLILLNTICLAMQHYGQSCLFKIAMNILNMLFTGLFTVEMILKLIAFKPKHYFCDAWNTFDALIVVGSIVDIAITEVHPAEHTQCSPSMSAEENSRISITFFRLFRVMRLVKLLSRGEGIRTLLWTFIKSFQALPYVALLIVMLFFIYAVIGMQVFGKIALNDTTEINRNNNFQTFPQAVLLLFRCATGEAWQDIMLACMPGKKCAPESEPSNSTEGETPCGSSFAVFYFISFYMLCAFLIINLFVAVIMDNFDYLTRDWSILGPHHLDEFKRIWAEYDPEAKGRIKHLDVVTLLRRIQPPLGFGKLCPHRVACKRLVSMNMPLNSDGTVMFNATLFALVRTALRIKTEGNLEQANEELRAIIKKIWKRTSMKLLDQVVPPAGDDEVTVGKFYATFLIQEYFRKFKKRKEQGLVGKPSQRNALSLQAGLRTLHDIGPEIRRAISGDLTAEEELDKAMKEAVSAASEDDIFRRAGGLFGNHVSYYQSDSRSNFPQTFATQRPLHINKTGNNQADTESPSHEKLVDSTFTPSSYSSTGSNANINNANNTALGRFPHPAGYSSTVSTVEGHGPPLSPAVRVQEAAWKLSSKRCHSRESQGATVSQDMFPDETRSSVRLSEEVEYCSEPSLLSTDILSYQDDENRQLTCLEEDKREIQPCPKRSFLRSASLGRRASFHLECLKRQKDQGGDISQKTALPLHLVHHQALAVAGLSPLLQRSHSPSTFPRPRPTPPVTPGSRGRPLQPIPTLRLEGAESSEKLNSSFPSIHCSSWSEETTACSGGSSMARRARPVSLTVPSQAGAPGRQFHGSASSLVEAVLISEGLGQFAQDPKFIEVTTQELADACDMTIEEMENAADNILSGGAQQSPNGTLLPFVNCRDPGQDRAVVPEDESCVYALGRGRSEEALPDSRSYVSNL

For `O=c1c(-c2ccc(O)cc2)coc2cc(O)cc(O)c12` [GENISTEIN], the IC50 [1] was 57.5 µM.
For `CC(=O)N1CCN(c2ccc(OCC3COC(Cn4ccnc4)(c4ccc(Cl)cc4Cl)O3)cc2)CC1` (stereo unspecified) [KETOCONAZOLE], the IC50 [2] was 3.5 µM.
Work on `CCN1CCC(CC(NC(=O)c2ccc([N+](=O)[O-])cc2)c2ccc(F)cc2)CC1` (stereo unspecified) yielded an IC50 [3] of 100 µM.
Work on `CCC1=C[C@@H]2CN3CCc4c([nH]c5ccccc45)[C@@](C(=O)OC)(C2)[C@@H]13` [CATHARANTHINE BASE] yielded an IC50 [4] of 224 µM and an IC50 [5] of 8.4 µM.
Work on `Cc1cc2c(OCC(O)CN3CCN(C(c4ccccc4)c4ccccc4)CC3)cccc2[nH]1` (stereo unspecified) yielded an IC50 [6] of 3.6 µM.
`CN1CCC(=C2c3ccccc3C=Cc3ccccc32)CC1` [CYPROHEPTADINE] gave an IC50 [7] of 42.2 µM and an IC50 [8] of 7.75 µM.
In the case of `O=C1COc2c1c(=O)c1ccc(Br)cc1n2Cc1ccccc1F`, the IC50 [9] is reported as 4.9 µM.
In the case of `CCC(C)n1ncn(-c2ccc(N3CCN(c4ccc(OCC5COC(Cn6cncn6)(c6ccc(Cl)cc6Cl)O5)cc4)CC3)cc2)c1=O` (stereo unspecified) [ITRACONAZOLE], the IC50 [10] is reported as “inactive at 10uM. Original reference for datapoint is pubmed_id: 22975497”.
With `CN1CCN(c2ncc(-c3cc(Cl)cc(Cl)c3Cl)c(N)n2)CC1` [SIPATRIGINE] the IC50 [11] was 6.02 µM.
In the case of `COc1ccc(S(=O)(=O)NCc2cc(CN3CCCC3)c(O)c(CN3CCCC3)c2)cc1` [SULCARDINE], the IC50 [12] is reported as 69.2 µM.
`COCCOc1ccccc1CCN1CCC(CC(=O)N[C@@H](c2ccc(F)cc2)C(C)C)CC1` showed an IC50 [13] of 38 µM.
In the case of `CC(C)C(CNC(=O)C1CCN(CCc2ccccc2)CC1)c1ccc(F)cc1` (stereo unspecified), the IC50 [14] is reported as 3.9 µM.
With `COc1cccc(CCN2CCC(CC(=O)N[C@@H](c3ccc(F)cc3)C(C)C)CC2)c1` the IC50 [15] was 7 µM and the IC50 [14] was 2.2 µM.
`O=C(/C=C/c1ccc(O)c(O)c1/C=C/c1ccc(O)c(O)c1)O[C@H](Cc1ccc(O)c(O)c1)C(=O)O` [SALVIANOLIC ACID A] showed an IC50 [16] of 38.3 µM.
In the case of `COc1ccc(OCCCN(C)CCOc2ccc3c(c2)OCO3)c([C@@H]2Sc3ccccc3N(C)C2=O)c1` [LEVOSEMOTIADIL], the IC50 [17] is reported as 1290 nM.
Work on `Cc1ccc(-c2cc(C(F)(F)F)nn2-c2ccc(S(N)(=O)=O)cc2)cc1` [CELECOXIB] yielded an IC50 [18] of 10.6 µM.
In the case of `OC(Cn1cncn1)(Cn1cncn1)c1ccc(F)cc1F` [FLUCONAZOLE], the IC50 [10] is reported as “inactive at 10uM. Original reference for datapoint is pubmed_id: 22975497”.
`COc1ccc(CCNC(C)COc2c(C)cccc2C)cc1OC` (stereo unspecified) gave an IC50 [19] of 28.5 µM.
`CCNCC#CC(C)(C)OC(=O)C(O)(c1ccccc1)C1CCCCC1` (stereo unspecified) showed an IC50 [20] of 27 µM.
`CC1=C(C(=O)OC(C)C)[C@@H](c2cccc3nonc23)C([N+](=O)[O-])=C(C)N1` gave an IC50 [21] of 1 nM and an IC50 [22] of 200 nM.
`CCN(CC)CC#CC(C)(C)OC(=O)C(O)(c1ccccc1)C1CCCCC1` (stereo unspecified) [TEMIVERINE] was tested, and the IC50 [20] was 27 µM.
`CC(C)[C@@H](NC(=O)NC1CCN(CCc2ccccc2)CC1)c1ccc(F)cc1` was tested, and the IC50 [14] was 5 µM.
Compound `O=c1cc(-c2ccccc2)oc2cc(O)c(O)c(O)c12` [BAICALEIN] has an IC50 [1] of 85.1 µM.
With `O=C(O)c1ccccc1Nc1ccccc1` [FENAMIC ACID] the IC50 [23] was 470 µM.
In the case of `CCC(C)c1ccccc1OC(=O)NC` (stereo unspecified) [FENOBUCARB], the IC50 [7] is reported as 520 µM.
`Clc1ccc(COC(Cn2ccnc2)c2ccc(Cl)cc2Cl)c(Cl)c1` (stereo unspecified) [MICONAZOLE] was tested, and the IC50 [2] was 3 µM.
`COc1cccc(/C=C/CN2CCC(=C3c4ccccc4C=Cc4ccccc43)CC2)c1[N+](=O)[O-]` gave an IC50 [24] of 320 nM and an IC50 [7] of 4.91 µM.
Work on `COc1ccc2c(c1)c(C1=C(c3c[nH]c4ccccc34)C(=O)NC1=O)cn2CCCN(C)C` yielded an IC50 [25] of 20 µM.
For `COCCOc1cc(F)ccc1CCN1CCC(CC(=O)N[C@@H](c2ccc(F)cc2)C(C)C)CC1`, the IC50 [14] was 1.9 µM.
Compound `COCCOc1ccc(F)cc1CCN1CCC(CC(=O)N[C@@H](c2ccc(F)cc2)C(C)C)CC1` has an IC50 [14] of 3.1 µM.
In the case of `CCCC(C)C1(CC)C(=O)NC(=S)NC1=O` (stereo unspecified) [THIOPENTAL], the IC50 [26] is reported as 280 nM.
Work on `CN1CCCC(n2nc(Cc3ccc(Cl)cc3)c3ccccc3c2=O)CC1` (stereo unspecified) [AZELASTINE] yielded an IC50 [27] of 8 µM.
`CCN(CC)CC(=O)N1C[C@@H](c2ccc(Cl)cc2)Sc2ccccc21` gave an IC50 [28] of 52 µM.
With `CCCCc1oc2ccc(NS(C)(=O)=O)cc2c1C(=O)c1ccc(OCCCN(CCCC)CCCC)cc1` [DRONEDARONE] the IC50 [29] was 400 nM.
For `CCCCC/C=C\C/C=C\C/C=C/C/C=C\CCCC(=O)NCCO`, the IC50 [30] was 100 nM.
`CC(C)(C)OC(=O)N1CC2CC(CN(C[C@H](O)COc3ccc(C#N)cc3)C2)C1` showed an IC50 [31] of 6 µM and an IC50 [32] of 1300 nM.
With `CC(C)c1c(C(=O)Nc2ccccc2)c(-c2ccccc2)c(-c2ccc(F)cc2)n1CC[C@@H](O)C[C@@H](O)CC(=O)O` [ATORVASTATIN] the IC50 [33] was “inactive at 10nM. Original reference for datapoint is pubmed_id: 17466325”.
`O=c1cc(N2CCOCC2)oc2c(-c3ccccc3)cccc12` [LY-294002] showed an IC50 [25] of 12 µM.
In the case of `Oc1c(CN2CCCC2)cc(Nc2ncnc3ccccc23)cc1CN1CCCC1` [CHANGROLIN], the IC50 [34] is reported as 74.7 µM.
Work on `O=C1C=CC[C@H](C[C@@H](O)CCc2ccc(O)cc2)O1` yielded an IC50 [35] of 3.2 µM.
